Reference: US20220177508A1, “C10-Cyclic Substituted 13-Membered Macrolides and Uses Thereof” (Zikani Therapeutics, Inc., priority 2018, published 2022)
≈ marks a conversion by molar mass, not a printed value.

Legend:
Assay type in all cases: cell-based
K. pneumoniae MP-648 = experiment: Broth dilution MIC determination (CLSI), K. pneumoniae MP-648; conditions: Klebsiella pneumoniae, MP648; strain MP-648, broth dilution
A. baumannii MP-15 = experiment: Broth dilution MIC determination (CLSI), A. baumannii MP-15; conditions: Acinetobacter baumannii, MP15; strain MP-15, broth dilution; read-out: MIC A. baumanii MP-15
K. pneumoniae MP-546 = experiment: Broth dilution MIC determination (CLSI), K. pneumoniae MP-546; conditions: Klebsiella pneumoniae, MP546; strain MP-546, broth dilution
E. coli MP-4 = experiment: Broth dilution MIC determination (CLSI), E. coli MP-4; conditions: Escherichia coli, MP4; strain MP-4, broth dilution; read-out: MIC E. coli MP-4
S. aureus MP-12 = experiment: Broth dilution MIC determination (CLSI), S. aureus MP-12; conditions: Staphylococcus aureus, MP12; strain MP-12, broth dilution
P. aeruginosa MP-3 = experiment: Broth dilution MIC determination (CLSI), P. aeruginosa MP-3; conditions: Pseudomonas aeruginosa, MP3; strain MP-3, broth dilution

Row | SMILES | MIC (K. pneumoniae MP-648) [µg/mL] | MIC (A. baumannii MP-15) [µg/mL] | MIC (K. pneumoniae MP-546) [µg/mL] | MIC (E. coli MP-4) [µg/mL] | MIC (S. aureus MP-12) [µg/mL] | MIC (P. aeruginosa MP-3) [µg/mL]
1 | CO[C@]1(C)C[C@@H](C)CN(C)[C@H](C2CN(CC3CC3)C2)[C@@H](C)OC(=O)C(C)(C)C(=O)[C@H](C)[C@H]1O[C@@H]1O[C@H](C)C[C@H](N(C)C)[C@H]1O [Compound 146, (2R,3R,6R,8R,9R,10R)-3-(1-(cyclopropylmethyl)azetidin-3-yl)-9-(((2S,3R,4S,6R)-4-(dimethylamino)-3-hydroxy-6-methyltetrahydro-2H-pyran-2-yl)oxy)-8-methoxy-2,4,6,8,10,12,12-heptamethyl-1-oxa-4-azacyclotridecane-11,13-dione] | > 32 | > 32 | > 32 | 4 to 32 (≈ 6.41 to 51.3 µM) | > 32 | > 32
2 | CO[C@]1(C)C[C@@H](C)CN(C)[C@H](C2CN(C(=O)CCCN(C)CC3CCC3)C2)COC(=O)C(C)(C)C(=O)[C@H](C)[C@H]1O[C@@H]1O[C@H](C)C[C@H](N(C)C)[C@H]1O [Compound 156, (3R,6R,8R,9R,10R)-3-(1-(4-((cyclobutylmethyl)(methyl)amino)butanoyl)azetidin-3-yl)-9-(((2S,3R,4S,6R)-4-(dimethylamino)-3-hydroxy-6-methyltetrahydro-2H-pyran-2-yl)oxy)-8-methoxy-4,6,8,10,12,12-hexamethyl-1-oxa-4-azacyclotridecane-11,13-dione] | 4 to 32 (≈ 5.53 to 44.3 µM) | > 32 | 4 to 32 (≈ 5.53 to 44.3 µM) | < 4 | > 32 | > 32
3 | CO[C@]1(C)C[C@@H](C)CN(C)[C@H](C2CN(C(=O)CCN(C)C)C2)COC(=O)C(C)(C)C(=O)[C@H](C)[C@H]1O[C@@H]1O[C@H](C)C[C@H](N(C)C)[C@H]1O [Compound 50, (3R,6R,8R,9R,10R)-9-(((2S,3R,4S,6R)-4-(dimethylamino)-3-hydroxy-6-methyltetrahydro-2H-pyran-2-yl)oxy)-3-(1-(3-(dimethylamino)propanoyl)azetidin-3-yl)-8-methoxy-4,6,8,10,12,12-hexamethyl-1-oxa-4-azacyclotridecane-11,13-dione] | 4 to 32 (≈ 6.11 to 48.9 µM) | > 32 | 4 to 32 (≈ 6.11 to 48.9 µM) | 4 to 32 (≈ 6.11 to 48.9 µM) | 4 to 32 (≈ 6.11 to 48.9 µM) | > 32
4 | CO[C@]1(C)C[C@@H](C)CN(C)[C@H](C2CN(C(=O)CCN(C)CC3CC3)C2)COC(=O)C(C)(C)C(=O)[C@H](C)[C@H]1O[C@@H]1O[C@H](C)C[C@H](N(C)C)[C@H]1O [Compound 144, (3R,6R,8R,9R,10R)-3-(1-(3-((cyclopropylmethyl)(methyl)amino)propanoyl)azetidin-3-yl)-9-(((2S,3R,4S,6R)-4-(dimethylamino)-3-hydroxy-6-methyltetrahydro-2H-pyran-2-yl)oxy)-8-methoxy-4,6,8,10,12,12-hexamethyl-1-oxa-4-azacyclotridecane-11,13-dione] | > 32 | > 32 | 4 to 32 (≈ 5.76 to 46 µM) | < 4 | > 32 | > 32

The remaining lines, values ahead:

Row | MIC (K. pneumoniae MP-648) [µg/mL] | MIC (A. baumannii MP-15) [µg/mL] | MIC (K. pneumoniae MP-546) [µg/mL] | MIC (E. coli MP-4) [µg/mL] | MIC (S. aureus MP-12) [µg/mL] | MIC (P. aeruginosa MP-3) [µg/mL] | SMILES
5 | 4 to 32 (≈ 6.37 to 51 µM) | > 32 | 4 to 32 (≈ 6.37 to 51 µM) | < 4 | > 32 | > 32 | COCC(C)N1CC([C@@H]2COC(=O)C(C)(C)C(=O)[C@H](C)[C@@H](O[C@@H]3O[C@H](C)C[C@H](N(C)C)[C@H]3O)[C@](C)(OC)C[C@@H](C)CN2C)C1 (stereo partly drawn) [Compound 32, (3R,6R,8R,9R,10R)-9-(((2S,3R,4S,6R)-4-(dimethylamino)-3-hydroxy-6-methyltetrahydro-2H-pyran-2-yl)oxy)-8-methoxy-3-(1-(1-methoxypropan-2-yl)azetidin-3-yl)-4,6,8,10,12,12-hexamethyl-1-oxa-4-azacyclotridecane-11,13-dione]
6 | 4 to 32 (≈ 5.74 to 45.9 µM) | > 32 | 4 to 32 (≈ 5.74 to 45.9 µM) | < 4 | 4 to 32 (≈ 5.74 to 45.9 µM) | > 32 | CO[C@]1(C)C[C@@H](C)CN(C)[C@H](C2CN(C(=O)CC(C)(C)CN(C)C)C2)COC(=O)C(C)(C)C(=O)[C@H](C)[C@H]1O[C@@H]1O[C@H](C)C[C@H](N(C)C)[C@H]1O [Compound 183, (3R,6R,8R,9R,10R)-3-(1-(4-(dimethylamino)-3,3-dimethylbutanoyl)azetidin-3-yl)-9-(((2S,3R,4S,6R)-4-(dimethylamino)-3-hydroxy-6-methyltetrahydro-2H-pyran-2-yl)oxy)-8-methoxy-4,6,8,10,12,12-hexamethyl-1-oxa-4-azacyclotridecane-11,13-dione]
7 | < 4 | > 32 | < 4 | < 4 | 4 to 32 (≈ 6.69 to 53.5 µM) | > 32 | CO[C@]1(C)C[C@@H](C)CN(C)[C@H]([C@H]2C[C@H](N(C)C)C2)COC(=O)C(C)(C)C(=O)[C@H](C)[C@H]1O[C@@H]1O[C@H](C)C[C@H](N(C)C)[C@H]1O [Compound 30, (3R,6R,8R,9R,10R)-9-(((2S,3R,4S,6R)-4-(dimethylamino)-3-hydroxy-6-methyltetrahydro-2H-pyran-2-yl)oxy)-3-((1r,3R)-3-(dimethylamino)cyclobutyl)-8-methoxy-4,6,8,10,12,12-hexamethyl-1-oxa-4-azacyclotridecane-11,13-dione]
